Laboratory results published in patent publication US12521393B2, “Cytotoxicity targeting chimeras for CCR2-expressing cells” (GLAXOSMITHKLINE INTELLECTUAL PROPERTY DEVELOPMENT LIMITED, priority 2021, dated 2026).
Where a name gives a salt, the structure may show the parent alone.

Columns and labels:
[1] = system: CCR2 expressing cells (CD11b+Ly6c+Hi) in peripheral blood; assay: In vivo depletion assay, flow cytometry of peripheral blood (Example 201); design: species or system human CCR2 knock-in mice (C57 background); details: hCCR2 knock-in mice, IV 0.1 mpk compound + 10 mpk anti-cotinine antibody (SEQ ID NO: 13/14), peripheral blood at 48 hr
Experimental: Stock solution preparation. Stock solutions of compounds of Formula (I) were prepared at 20 mg/mL and 100 mg/mL in […] for PK/PD and dose tolerability studies respectively. Stock solutions were stored at […] until further usage. on the day of experiment, the stock Solution of the compound of Formula (I) was removed from storage at […] and thawed at room temperature. Anti-cotinine antibody having a heavy chain sequence of SEC ID NO: 13 and a light chain sequence of SEQ ID NO: 14 (rabbit variable region sequence with mouse IgG2a Fc domain), if required was removed from storage at −80° C. and thawed at room temperature. Antibody vials were immediately transferred into wet ice after thawing. Compounds of Formula (I) were further diluted in DMSO as per experimental requirements.
The formulation composition was Saline: DMSI: PBS.
Saline was added based on the quantity required and then stock solution of the compound of Formula (I) prepared in DMSO, followed by addition of antibody in PBS. Formulations were incubated at room temperature for 30 minutes before administration to the mouse. DMSO was used at 1 to % (v/v) in the final formulation.
After bleeding, each mouse was sacrificed by cervical dislocation. […] Flow Cytometry Analysis:
CCR2 depletion in peripheral blood was determined by flow cytometry. Briefly, peripheral blood was collected from all animals at the end of study termination and processed. Blood samples were lysed using 1×RBC Lysis buffer and the resulting cell pellet was washed twice in FACS buffer (HBSS containing 5% FBS). Cells were subjected to Fc blocking using mouse Fc block from Biolegend (Trustain, anti-mouse CD16/32, Cat: 101319) to block non-specific binding followed by surface staining for immune markers (CD45, CD3, CD11 b, Ly6C, human CCR2). Surface staining was done for 30 minutes in ice and cells were washed twice to remove unbound antibodies. Cells were stained with 7AAD to determine viability and acquired on BD FACSVerse flow cytometer. Appropriate FMO controls and single-color controls were included in the experiment for gating and compensation respectively.
Percent depletion of CD11 b+Ly6c+Hi cells and CCR2 expression for the different treatment groups was determined.

[2] = system: endogenous target monocytes in human PBMC; assay: PBMC ex vivo monocyte depletion flow cytometry assay (Example 200); format: cell-based; details: with anti-cotinine antibody (SEQ ID NO: 11/12), 18-24 hours, EC50 in molar, read-out: Ex Vivo Depletion Assay pEC50 (converted)
Summary of the method: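 Monocyte depletion is reported as pEC50, averaged or given individually across runs, and read by flow cytometry staining CD45, CD14 and CD4 with a viability dye. Compounds, diluted four-fold over 11 points from 1 mM DMSO stocks, were combined with 30 μg/mL Fc-enhanced anti-cotinine antibody and human PBMC, then incubated 18-24 h at 37° C.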

Row | SMILES | % Depletion of CCR2 expressing cells [1] | EC50 [2]
1 | CC(C)N(C)[C@@H]1CC[C@H](N2CC[C@H](Nc3ncnc4ccc(C(F)(F)F)cc34)C2=O)[C@H](NC(=O)C[C@H]2CC[C@H](NC(=O)CCOCCOCCOCCNC(=O)[C@H]3CC(=O)N(C)[C@@H]3c3cccnc3)CC2)C1 [Example 33, (2S,3S)-N-(2-(2-(2-(3-(((1R,4r)-4-(2-(((1R,2S,5R)-5-(Isopropyl(methyl)amino)-2-((S)-2-oxo-3-((6-(trifluoromethyl)quinazolin-4-yl)amino)pyrrolidin-1-yl)cyclohexyl)amino)-2-oxoethyl)cyclohexyl)amino)-3-oxopropoxy)ethoxy)ethoxy)ethyl)-1-methyl-5-oxo-2-(pyridin-3-yl)pyrrolidine-3-carboxamide] | 89% | 0.316 nM
2 | CN1C(=O)C[C@H](C(=O)NCCC(=O)NCCOCCOCCC(=O)N[C@H]2CC[C@@H](C(=O)N[C@@H]3C[C@H](NC(C)(C)C)CC[C@@H]3N3CC[C@H](Nc4ncnc5ccc(C(F)(F)F)cc45)C3=O)CC2)[C@H]1c1cccnc1 [Example 51, (2S,3S)-N-(3-((2-(2-(3-(((1S,4s)-4-(((1R,2S,5R)-5-(tert-Butylamino)-2-((S)-2-oxo-3-((6-(trifluoromethyl)quinazolin-4-yl)amino)pyrrolidin-1-yl)cyclohexyl)carbamoyl)cyclohexyl)amino)-3-oxopropoxy)ethoxy)ethyl)amino)-3-oxopropyl)-1-methyl-5-oxo-2-(pyridin-3-yl)pyrrolidine-3-carboxamide] | 97.32% | 0.631 nM
3 | CC(C)N(C)[C@@H]1CC[C@H](N2CC[C@H](Nc3ncnc4ccc(C(F)(F)F)cc34)C2=O)[C@H](NC(=O)[C@H]2CC[C@@H](NC(=O)CNC(=O)COCCOCCNC(=O)[C@H]3CC(=O)N(C)[C@@H]3c3cccnc3)CC2)C1 [Example 81, (2S,3S)-N-(2-(2-(2-((2-(((1S,4s)-4-(((1R,2S,5R)-5-(Isopropyl(methyl)amino)-2-((S)-2-oxo-3-((6-(trifluoromethyl)quinazolin-4-yl)amino)pyrrolidin-1-yl)cyclohexyl)carbamoyl)cyclohexyl)amino)-2-oxoethyl)amino)-2-oxoethoxy)ethoxy)ethyl)-1-methyl-5-oxo-2-(pyridin-3-yl)pyrrolidine-3-carboxamide] | 94% | –
4 | CC(C)N(C)[C@@H]1CC[C@H](N2CC[C@H](Nc3ncnc4ccc(C(F)(F)F)cc34)C2=O)[C@H](NC(=O)[C@H]2CC[C@@H](NC(=O)COCCOCCNC(=O)CCNC(=O)[C@H]3CC(=O)N(C)[C@@H]3c3cccnc3)CC2)C1 [Example 82, (2S,3S)-N-(3-((2-(2-(2-(((1S,4s)-4-(((1R,2S,5R)-5-(Isopropyl(methyl)amino)-2-((S)-2-oxo-3-((6-(trifluoromethyl)quinazolin-4-yl)amino)pyrrolidin-1-yl)cyclohexyl)carbamoyl)cyclohexyl)amino)-2-oxoethoxy)ethoxy)ethyl)amino)-3-oxopropyl)-1-methyl-5-oxo-2-(pyridin-3-yl)pyrrolidine-3-carboxamide] | 94% | 0.501 nM
5 | CC(C)N(C)[C@@H]1CC[C@H](N2CC[C@H](Nc3ncnc4ccc(C(F)(F)F)cc34)C2=O)[C@H](NC(=O)CCc2ccc(C3CCN(C(=O)CCCCCNC(=O)[C@H]4CC(=O)N(C)[C@@H]4c4cccnc4)CC3)cc2)C1 [Example 86, (2S,3S)-N-(6-(4-(4-(3-(((1R,2S,5R)-5-(Isopropyl(methyl)amino)-2-((S)-2-oxo-3-((6-(trifluoromethyl)quinazolin-4-yl)amino)pyrrolidin-1-yl)cyclohexyl)amino)-3-oxopropyl)phenyl)piperidin-1-yl)-6-oxohexyl)-1-methyl-5-oxo-2-(pyridin-3-yl)pyrrolidine-3-carboxamide] | 25.67% | 0.158 nM
6 | CC(C)N(C)[C@@H]1CC[C@H](N2CC[C@H](Nc3ncnc4ccc(C(F)(F)F)cc34)C2=O)[C@H](NC(=O)C2CCN(C3CCN(CCOCCOCCNC(=O)[C@H]4CC(=O)N(C)[C@@H]4c4cccnc4)CC3)CC2)C1 [Example 90, N-((1R,2S,5R)-5-(Isopropyl(methyl)amino)-2-((S)-2-oxo-3-((6-(trifluoromethyl)quinazolin-4-yl)amino)pyrrolidin-1-yl)cyclohexyl)-1′-(2-(2-(2-((2S,3S)-1-methyl-5-oxo-2-(pyridin-3-yl)pyrrolidine-3-carboxamido)ethoxy)ethoxy)ethyl)-[1,4′-bipiperidine]-4-carboxamide] | 87.57% | 1.58 nM
7 | CN1C(=O)C[C@H](C(=O)NCCOCC(=O)NCCOCC(=O)N[C@H]2CC[C@@H](C(=O)N[C@@H]3C[C@H](NC(C)(C)C)CC[C@@H]3N3CC[C@H](Nc4ncnc5ccc(C(F)(F)F)cc45)C3=O)CC2)[C@H]1c1cccnc1 [Example 100, (2S,3S)-N-(2-(2-((2-(2-(((1S,4s)-4-(((1R,2S,5R)-5-(tert-Butylamino)-2-((S)-2-oxo-3-((6-(trifluoromethyl)quinazolin-4-yl)amino)pyrrolidin-1-yl)cyclohexyl)carbamoyl)cyclohexyl)amino)-2-oxoethoxy)ethyl)amino)-2-oxoethoxy)ethyl)-1-methyl-5-oxo-2-(pyridin-3-yl)pyrrolidine-3-carboxamide] | 74% | 1.26 nM
8 | CC(C)N(C)[C@@H]1CC[C@H](N2CC[C@H](Nc3ncnc4ccc(C(F)(F)F)cc34)C2=O)[C@H](NC(=O)CNC(=O)[C@H]2CC[C@@H](NC(=O)COCCOCCNC(=O)[C@H]3CC(=O)N(C)[C@@H]3c3cccnc3)CC2)C1 [Example 136, (2S,3S)-N-(2-(2-(2-(((1S,4R)-4-((2-(((1R,2S,5R)-5-(Isopropyl(methyl)amino)-2-((S)-2-oxo-3-((6-(trifluoromethyl)quinazolin-4-yl)amino)pyrrolidin-1-yl)cyclohexyl)amino)-2-oxoethyl)carbamoyl)cyclohexyl)amino)-2-oxoethoxy)ethoxy)ethyl)-1-methyl-5-oxo-2-(pyridin-3-yl)pyrrolidine-3-carboxamide] | 88% | 10 nM
9 | CC(C)N(C)[C@@H]1CC[C@H](N2CC[C@H](Nc3ncnc4ccc(C(F)(F)F)cc34)C2=O)[C@H](NC(=O)C2CCN(CCCCCCCCNC(=O)[C@H]3CC(=O)N(C)[C@@H]3c3cccnc3)CC2)C1 [Example 144, N-((1R,2S,5R)-5-(Isopropyl(methyl)amino)-2-((S)-2-oxo-3-((6-(trifluoromethyl)quinazolin-4-yl)amino)pyrrolidin-1-yl)cyclohexyl)-1-(8-((2S,3S)-1-methyl-5-oxo-2-(pyridin-3-yl)pyrrolidine-3-carboxamido)octyl)piperidine-4-carboxamide, 3Formic acid salt] | 85.67% | 0.501 nM
10 | CC(C)N(C)[C@@H]1CC[C@H](N2CC[C@H](Nc3ncnc4ccc(C(F)(F)F)cc34)C2=O)[C@H](NC(=O)[C@H]2CC[C@H](N3CCN(CCCCCCCCNC(=O)[C@H]4CC(=O)N(C)[C@@H]4c4cccnc4)CC3)CC2)C1 [Example 146, (2S,3S)-N-(8-(4-((1R,4r)-4-(((1R,2S,5R)-5-(Isopropyl(methyl)amino)-2-((S)-2-oxo-3-((6-(trifluoromethyl)quinazolin-4-yl)amino)pyrrolidin-1-yl)cyclohexyl)carbamoyl)cyclohexyl)piperazin-1-yl)octyl)-1-methyl-5-oxo-2-(pyridin-3-yl)pyrrolidine-3-carboxamide] | 83.08% | 0.316 nM
11 | CC(C)N(C)[C@@H]1CC[C@H](N2CC[C@H](Nc3ncnc4ccc(C(F)(F)F)cc34)C2=O)[C@H](NC(=O)C2CCN(CCOCCOCCOCCOCCNC(=O)[C@H]3CC(=O)N(C)[C@@H]3c3cccnc3)CC2)C1 [Example 147] | 77% | 0.631 nM
12 | CC(C)N(C)[C@@H]1CC[C@H](N2CC[C@H](Nc3ncnc4ccc(C(F)(F)F)cc34)C2=O)[C@H](NC(=O)[C@H]2CC[C@@H](C(=O)NCCCN3CCN(CCCNC(=O)[C@H]4CC(=O)N(C)[C@@H]4c4cccnc4)CC3)CC2)C1 [Example 150, (1 s,4S)-N^1-((1R,2S,5R)-5-(Isopropyl(methyl)amino)-2-((S)-2-oxo-3-((6-(trifluoromethyl)quinazolin-4-yl)amino)pyrrolidin-1-yl)cyclohexyl)-N^4-(3-(4-(3-((2S,3S)-1-methyl-5-oxo-2-(pyridin-3-yl)pyrrolidine-3-carboxamido)propyl)piperazin-1-yl)propyl)cyclohexane-1,4-dicarboxamide] | 85.52% | 1 nM
